Molecular target: T1, SERCA2 (Homo sapiens, UniProt P16615)
T1 construct: gene ATP2A2; endogenous SERCA2 in SW480 whole-cell lysates
Assay: competition by […] free RL71 of the RL71-biotin streptavidin pull-down (LC/MS, anti-SERCA2 western blot); Ca2+-ATPase inhibition in treated SW480 cells
Type: cell-based

T1 sequence (P16615 whole entry): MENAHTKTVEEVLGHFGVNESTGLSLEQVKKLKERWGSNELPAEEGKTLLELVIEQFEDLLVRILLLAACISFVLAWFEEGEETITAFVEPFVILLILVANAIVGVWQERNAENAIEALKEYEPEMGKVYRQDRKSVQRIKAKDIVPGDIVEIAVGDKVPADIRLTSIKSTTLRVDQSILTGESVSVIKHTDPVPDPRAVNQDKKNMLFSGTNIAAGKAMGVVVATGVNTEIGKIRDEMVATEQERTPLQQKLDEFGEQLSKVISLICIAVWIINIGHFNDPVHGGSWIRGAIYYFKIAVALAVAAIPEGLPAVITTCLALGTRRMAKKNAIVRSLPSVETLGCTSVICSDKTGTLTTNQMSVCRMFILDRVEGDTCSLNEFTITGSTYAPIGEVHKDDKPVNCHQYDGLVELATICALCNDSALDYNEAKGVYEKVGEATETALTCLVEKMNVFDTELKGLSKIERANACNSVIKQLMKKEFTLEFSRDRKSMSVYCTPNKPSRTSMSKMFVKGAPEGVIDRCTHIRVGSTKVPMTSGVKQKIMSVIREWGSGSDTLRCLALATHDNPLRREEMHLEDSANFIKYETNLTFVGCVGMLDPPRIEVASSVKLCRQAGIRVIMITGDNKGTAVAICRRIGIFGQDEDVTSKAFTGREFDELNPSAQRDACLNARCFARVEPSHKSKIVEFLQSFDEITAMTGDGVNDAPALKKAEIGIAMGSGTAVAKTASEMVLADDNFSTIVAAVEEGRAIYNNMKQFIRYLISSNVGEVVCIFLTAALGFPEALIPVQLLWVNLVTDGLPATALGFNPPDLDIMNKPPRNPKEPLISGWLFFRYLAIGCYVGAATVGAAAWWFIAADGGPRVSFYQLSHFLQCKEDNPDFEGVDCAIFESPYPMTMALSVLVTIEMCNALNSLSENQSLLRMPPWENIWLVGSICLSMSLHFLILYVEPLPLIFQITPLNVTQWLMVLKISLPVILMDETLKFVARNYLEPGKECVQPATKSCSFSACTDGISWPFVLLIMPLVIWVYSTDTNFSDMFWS

COc1cc(C=C2CN(C)CC(=Cc3cc(OC)c(OC)c(OC)c3)C2=O)cc(OC)c1OC [compound 1, 3,5-bis(3,4,5-trimethoxybenzylidene)-1-methylpiperidine-4-one]
competition by 200 μM free RL71 of the RL71-biotin streptavidin pull-down (LC/MS): The interaction between RL71-biotin and SERCA2 could be competed by RL71.
